Measured values from ChEMBL document CHEMBL2203223, “Identification of novel mPGES-1 inhibitors through screening of a chemical library” (Bioorg Med Chem Lett, 2012).

Experiments:
[1] = biological target: T1, Prostaglandin E synthase (Homo sapiens) (UniProt O14684); assay: Inhibition of microsomal PGES1 at 10 uM
T1 sequence (whole entry): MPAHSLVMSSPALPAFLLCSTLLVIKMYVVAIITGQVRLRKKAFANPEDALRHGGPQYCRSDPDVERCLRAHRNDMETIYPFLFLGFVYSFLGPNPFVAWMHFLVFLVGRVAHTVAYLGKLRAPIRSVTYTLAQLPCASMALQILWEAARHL

[2] = biological target: T1, Prostaglandin E synthase (Homo sapiens); assay: Inhibition of microsomal PGES1 at 25 uM
[3] = biological target: T2, Prostaglandin E synthase (Mus musculus) (UniProt Q9JM51); assay: Inhibition of microsomal PGES1 in mouse RAW264.7 cells assessed as inhibition of LPS-induced PGE2 production at 10 uM incubated for 1 hr prior to LPS challenge measured after 24 hrs by enzyme immunoassay; format: cell-based
T2 sequence (whole entry): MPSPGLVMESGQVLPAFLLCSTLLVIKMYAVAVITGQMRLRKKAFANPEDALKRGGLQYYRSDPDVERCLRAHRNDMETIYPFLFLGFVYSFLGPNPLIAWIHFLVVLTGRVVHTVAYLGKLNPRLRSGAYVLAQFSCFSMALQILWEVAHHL

[4] = biological target: T2, Prostaglandin E synthase (Mus musculus); assay: Inhibition of microsomal PGES1 in mouse RAW264.7 cells assessed as inhibition of LPS-induced PGE2 production at 1 uM incubated for 1 hr prior to LPS challenge measured after 24 hrs by enzyme immunoassay; format: cell-based

SMILES	inhibition [1]	inhibition [2]	other results
CN1C(=O)C(NC(=O)Nc2ccccc2Cl)N(C)C(=O)c2ccccc21 (racemic)	90%	–	–
O=C(C=C1c2ccccc2-c2ccccc21)NNC(=O)N(c1ccccc1)c1ccccc1	90%	–	–
Cc1n[nH]c(=S)n(/N=C/c2cccc([N+](=O)[O-])c2)c1=O	90%	–	–
COc1ccc(OC(=O)Nc2ccccc2)cc1	–	> 80%	–
CNC(=O)/C(=N\OC)c1ccccc1O	–	> 80%	–
CN1C(=O)C(N)NC(=O)c2ccccc21 (racemic)	–	> 80%	–
O=C1C(=O)N(c2ccccc2)c2ccccc21	90%	–	–
Cc1cccc(NC(=S)N/N=C/c2cccc([N+](=O)[O-])c2)c1	90%	–	–
CNC(=O)/C(=N/OC)c1ccccc1CO/N=C(/C)c1cccc(O/C(F)=C(\c2ccc(OC)cc2)C(F)(F)F)c1	90%	–	–
O=C(Oc1ccccc1)N(NS(=O)(=O)c1ccccc1)c1ccccc1	–	–	inhibition [3]: 93.3%; inhibition [4]: 59.9%
O=C1Sc2ccccc2C1=O	–	> 80%	–
